Results as given in US20250312352A1, “GLP-1R MODULATING COMPOUNDS” (Gilead Sciences, Inc., priority 2021, published 2025).

These molecules were tested against T1, GLP-1R (Homo sapiens, UniProt P43220) (assay: GLP-1R activation cAMP assay (Assay 1 or Assay 2)). Conditions: cAMP increase in CHO cells stably expressing GLP-1R; compounds run on one of the two cAMP assays.
T1 construct: host or cells: CHO cells
Assay type: cell-based
Method in brief: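 CHO cells stably expressing human GLP-1R were incubated 1 h in HBSS/20 mM HEPES/0.1% BSA, then exposed to 10-point agonist dilutions for 30 min at 37 °C. cAMP increase was measured with an HTRF Gs dynamic kit; EC50 from sigmoidal fit of response versus log concentration.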

T1 sequence (P43220 24-463): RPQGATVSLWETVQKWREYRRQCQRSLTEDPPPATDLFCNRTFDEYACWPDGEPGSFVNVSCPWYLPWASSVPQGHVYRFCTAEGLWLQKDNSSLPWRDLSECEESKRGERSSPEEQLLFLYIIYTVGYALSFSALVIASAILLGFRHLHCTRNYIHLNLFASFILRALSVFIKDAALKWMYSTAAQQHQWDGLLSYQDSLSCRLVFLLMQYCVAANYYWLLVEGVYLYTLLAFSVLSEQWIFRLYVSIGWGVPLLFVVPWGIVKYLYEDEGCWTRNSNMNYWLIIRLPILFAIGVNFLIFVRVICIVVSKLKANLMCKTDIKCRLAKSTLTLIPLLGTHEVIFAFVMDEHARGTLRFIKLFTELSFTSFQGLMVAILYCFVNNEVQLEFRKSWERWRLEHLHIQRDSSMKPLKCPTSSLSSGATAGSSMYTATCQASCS

EC50 [nM] | SMILES
2.65 | O=C(O)c1ccc2nc(Cc3cc(F)c(-c4cccc(OCc5ccc(C(F)(F)F)s5)n4)cc3F)n(C[C@@H]3CCO3)c2c1 [Example 123, (S)-2-(2,5-difluoro-4-(6-((5-(trifluoromethyl)thiophen-2-yl)methoxy)pyridin-2-yl)benzyl)-1-(oxetan-2-ylmethyl)-1H-benzo[d]imidazole-6-carboxylic acid]
0.068 | CC(F)(F)c1cnc(COc2nc(-c3cc(F)c(Cc4nc5c(F)cc(C(=O)O)cc5n4C[C@@H]4CCO4)c(F)c3F)ccc2F)s1 [Example 378, (S)-2-(4-(6-((5-(1,1-difluoroethyl)thiazol-2-yl)methoxy)-5-fluoropyridin-2-yl)-2,3,6-trifluorobenzyl)-4-fluoro-1-(oxetan-2-ylmethyl)-1H-benzo[d]imidazole-6-carboxylic acid]
0.034 | O=C(O)c1cc(F)c2nc(Cc3cc(F)c(-c4cccc(OCc5ncc(Cl)s5)n4)cc3F)n(C[C@@H]3CCO3)c2c1 [Example 319, (S)-2-(4-(6-((5-chlorothiazol-2-yl)methoxy)pyridin-2-yl)-2,5-difluorobenzyl)-4-fluoro-1-(oxetan-2-ylmethyl)-1H-benzo[d]imidazole-6-carboxylic acid]
0.342 | CC(C)(C#N)C#Cc1cnc(COc2cccc(-c3cc(F)c(Cc4nc5ccc(C(=O)O)cc5n4C[C@@H]4CCO4)cc3F)n2)s1 [Example 328, (S)-2-(4-(6-((5-(3-cyano-3-methylbut-1-yn-1-yl)thiazol-2-yl)methoxy)pyridin-2-yl)-2,5-difluorobenzyl)-1-(oxetan-2-ylmethyl)-1H-benzo[d]imidazole-6-carboxylic acid]
0.28 | O=C(O)c1ccc2nc(Cc3cc(F)c(-c4cccc(OCc5ccc(C#Cc6cncnc6)cc5F)n4)cc3F)n(C[C@@H]3CCO3)c2c1 [Example 138, (S)-2-(2,5-difluoro-4-(6-((2-fluoro-4-(pyrimidin-5-ylethynyl)benzyl)oxy)pyridin-2-yl)benzyl)-1-(oxetan-2-ylmethyl)-1H-benzo[d]imidazole-6-carboxylic acid]
0.89 | COCCn1c(Cc2cc(F)c(-c3cccc(OCc4ccc(C#CC5CN(C(C)=O)C5)cc4F)n3)cc2F)nc2ccc(C(=O)O)cc21 [Example 251, 2-[[4-[6-[[4-[2-(1-acetylazetidin-3-yl)ethynyl]-2-fluoro-phenyl]methoxy]-2-pyridyl]-2,5-difluoro-phenyl]methyl]-3-(2-methoxyethyl)benzimidazole-5-carboxylic acid]
1.95 | N#Cc1cc(COc2cccc(-c3cc(F)c(Cc4nc5ccc(C(=O)O)cc5n4C[C@@H]4CCO4)cc3F)n2)cs1 [Example 128, (S)-2-(4-(6-((5-cyanothiophen-3-yl)methoxy)pyridin-2-yl)-2,5-difluorobenzyl)-1-(oxetan-2-ylmethyl)-1H-benzo[d]imidazole-6-carboxylic acid]
23.2 | O=C(O)c1ccc2nc(Cc3cc(F)c(-c4cccc(OCc5nccn5C(F)F)n4)cc3F)n(C[C@@H]3CCO3)c2c1 [Example 19, (S)-2-(4-(6-((1-(difluoromethyl)-1H-imidazol-2-yl)methoxy)pyridin-2-yl)-2,5-difluorobenzyl)-1-(oxetan-2-ylmethyl)-1H-benzo[d]imidazole-6-carboxylic acid]
21.3 | N#Cc1ncc(COc2cccc(-c3cc(F)c(Cc4nc5ccc(C(=O)O)cc5n4C[C@@H]4CCO4)cc3F)n2)o1 [Example 168, (S)-2-(4-(6-((2-cyanooxazol-5-yl)methoxy)pyridin-2-yl)-2,5-difluorobenzyl)-1-(oxetan-2-ylmethyl)-1H-benzo[d]imidazole-6-carboxylic acid]

SMILES | EC50 [nM]
CC(C)(C)OC(=O)N[C@H]1C[C@@H](n2cc(-c3ccc(COc4cccc(-c5cc(F)c(Cc6nc7ccc(C(=O)O)cc7n6C[C@@H]6CCO6)cc5F)n4)c(F)c3)nn2)C1 [Example 219, 2-(4-(6-((4-(1-((1s,3s)-3-((tert-butoxycarbonyl)amino)cyclobutyl)-1H-1,2,3-triazol-4-yl)-2-fluorobenzyl)oxy)pyridin-2-yl)-2,5-difluorobenzyl)-1-(((S)-oxetan-2-yl)methyl)-1H-benzo[d]imidazole-6-carboxylic acid] | 0.85
